Target: PDE4D3 (Homo sapiens, UniProt Q08499)
Sequence (Q08499 1-673 isoform Q08499-2): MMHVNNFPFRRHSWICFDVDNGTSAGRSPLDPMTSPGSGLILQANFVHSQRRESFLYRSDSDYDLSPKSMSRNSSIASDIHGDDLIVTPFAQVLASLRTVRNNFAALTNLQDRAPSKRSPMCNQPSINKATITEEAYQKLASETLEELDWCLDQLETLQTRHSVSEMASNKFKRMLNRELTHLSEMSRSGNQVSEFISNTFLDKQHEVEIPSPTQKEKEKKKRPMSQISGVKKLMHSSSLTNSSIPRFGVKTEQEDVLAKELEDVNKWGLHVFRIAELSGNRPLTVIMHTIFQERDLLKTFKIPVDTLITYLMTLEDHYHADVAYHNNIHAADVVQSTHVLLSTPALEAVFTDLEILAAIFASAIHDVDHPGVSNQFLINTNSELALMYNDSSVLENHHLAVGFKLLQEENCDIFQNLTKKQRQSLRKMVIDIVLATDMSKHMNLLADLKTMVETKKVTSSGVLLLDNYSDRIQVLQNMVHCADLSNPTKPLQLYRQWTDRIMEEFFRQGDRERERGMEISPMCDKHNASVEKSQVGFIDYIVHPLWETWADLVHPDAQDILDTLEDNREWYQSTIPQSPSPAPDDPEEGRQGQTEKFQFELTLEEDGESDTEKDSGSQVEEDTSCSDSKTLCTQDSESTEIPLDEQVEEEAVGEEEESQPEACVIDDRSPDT

EC50 | Structure (SMILES)
1000 to 10000 nM | COc1ncc(Cn2cncn2)cc1-c1cccc(CO)c1 [Example 8, {3-[2-Methoxy-5-(1H-1,2,4-triazol-1-ylmethyl)pyridin-3-yl]phenyl}methanol]
100 to 1000 nM | COc1ncc(Cc2cnc(NC3CC3)nc2)nc1-c1cccc(Cl)c1 [Example 57, 5-{[6-(3-Chlorophenyl)-5-methoxypyrazin-2-yl]methyl}-N-cyclopropylpyrimidin-2-amine]
1000 to 10000 nM | CCOc1ncc(Cn2cnc(C(F)(F)F)n2)nc1-c1cccc(OC(F)F)c1 [Example 187, 3-[3-(Difluoromethoxy)phenyl]-2-ethoxy-5-{[3-(trifluoromethyl)-1H-1,2,4-triazol-1-yl]methyl}pyrazine]
> 10000 nM | COc1cccc(-c2cc(Cn3cncn3)cnc2OC(F)F)c1 [Example 175, 2-(Difluoromethoxy)-3-(3-methoxyphenyl)-5-(1H-1,2,4-triazol-1-ylmethyl)pyridine]
100 to 1000 nM | COc1ncc(Cn2cncn2)cc1-c1cc(Cl)cs1 [Example 142, 3-(4-Chlorothiophen-2-yl)-2-methoxy-5-(1H-1,2,4-triazol-1-ylmethyl)pyridine]
100 to 1000 nM | COc1ncc(Cn2cncn2)cc1-c1cccc(F)c1 [Example 129, 3-(3-Fluorophenyl)-2-methoxy-5-(1H-1,2,4-triazol-1-ylmethyl)pyridine]
< 100 nM | FC(F)Oc1ncc(Cn2ncnn2)cc1-c1cccc(Cl)c1 [Example 162, 3-(3-Chlorophenyl)-2-(difluoromethoxy)-5-(2H-1,2,3,4-tetrazol-2-ylmethyl)pyridine]
1000 to 10000 nM | COc1ncc(Cc2cnc(C#N)nc2)cc1-c1cccc(F)c1 [Example 39, 5-{[5-(3-Fluorophenyl)-6-methoxypyridin-3-yl]methyl}pyrimidine-2-carbonitrile]
< 100 nM | COc1ncc(Cn2cnc(CO)n2)cc1-c1ccnc(OC(F)F)c1 [Example 205, [1-({5-[2-(Difluoromethoxy)pyridin-4-yl]-6-methoxypyridin-3-yl}methyl)-1H-1,2,4-triazol-3-yl]methanol]
< 100 nM | Nc1ncc(Cc2cnc(OC(F)F)c(-c3cccc(Cl)c3)c2)s1 [Example 36, 5-{[5-(3-Chlorophenyl)-6-(difluoromethoxy)pyridin-3-yl]methyl}-1,3-thiazol-2-amine]
> 10000 nM | COc1ncc(Cn2cncn2)cc1-c1cccc(S(C)(=O)=O)c1 [Example 9, 3-(3-Methanesulfonylphenyl)-2-methoxy-5-(1H-1,2,4-triazol-1-ylmethyl)pyridine]
1000 to 10000 nM | CCOc1ncc(Cn2ncc(Cl)c2N)cc1-c1cccc(Cl)c1 [Example 235, 4-Chloro-1-{[5-(3-chlorophenyl)-6-ethoxypyridin-3-yl]methyl}-1H-pyrazol-5-amine]
100 to 1000 nM | COc1ncc(Cn2cnc(N)n2)cc1-c1cccc(F)c1 [Example 220, 1-{[5-(3-Fluorophenyl)-6-methoxypyridin-3-yl]methyl}-1H-1,2,4-triazol-3-amine]
100 to 1000 nM | COC(=O)c1ccc(Cc2cnc(OC)c(-c3cccc(Cl)c3)n2)cc1 [Example 85, Methyl 4-{[6-(3-chlorophenyl)-5-methoxypyrazin-2-yl]methyl}benzoate]
100 to 1000 nM | FC(F)Oc1ncc(Cc2cnc(NCC(F)(F)F)nc2)cc1-c1cccc(Cl)c1 [Example 94, 5-{[5-(3-Chlorophenyl)-6-(difluoromethoxy)pyridin-3-yl]methyl}-N-(2,2,2-trifluoroethyl)pyrimidin-2-amine]
< 100 nM | CCOc1cccc(-c2cc(Cn3cc(CO)nn3)cnc2OC(F)F)c1 [Example 264, (1-((6-(Difluoromethoxy)-5-(3-ethoxyphenyl)pyridin-3-yl)methyl)-1H-1,2,3-triazol-4-yl)methanol]
1000 to 10000 nM | CCOc1ncc(Cn2cnc(C(=O)OC)n2)nc1-c1cccc(Cl)c1 [Example 197, Methyl 1-{[6-(3-chlorophenyl)-5-ethoxypyrazin-2-yl]methyl}-1H-1,2,4-triazole-3-carboxylate]
< 100 nM | COc1ncc(Cn2cnc(CF)n2)cc1-c1cccc(OC(F)F)c1 [Example 253, 3-[3-(Difluoromethoxy)phenyl]-5-{[3-(fluoromethyl)-1H-1,2,4-triazol-1-yl]methyl}-2-methoxypyridine]
< 100 nM | CCOc1ncc(Cc2cnc(C(N)=O)nc2)cc1-c1ccnc(OC(F)F)c1 [Example 122, 5-({5-[2-(Difluoromethoxy)pyridin-4-yl]-6-ethoxypyridin-3-yl}methyl)pyrimidine-2-carboxamide]
< 100 nM | Cc1ncc(Cc2cnc(OC(F)F)c(-c3cccc(Cl)c3)c2)s1 [Example 73, 3-(3-Chlorophenyl)-2-(difluoromethoxy)-5-[(2-methyl-1,3-thiazol-5-yl)methyl]pyridine]
< 100 nM | COc1ncc(Cc2cnoc2)nc1-c1cccc(Cl)c1 [Example 95, 3-(3-Chlorophenyl)-2-methoxy-5-(1,2-oxazol-4-ylmethyl)pyrazine]
< 100 nM | Nc1ncn(Cc2cnc(OC(F)F)c(-c3cccc(Cl)c3)c2)n1 [Example 219, 1-{[5-(3-Chlorophenyl)-6-(difluoromethoxy)pyridin-3-yl]methyl}-1H-1,2,4-triazol-3-amine]

EC50 | Structure (SMILES)
1000 to 10000 nM | COc1ncc(Cc2cnc(NC(C)C)nc2)cc1-c1cccc(Cl)c1 [Example 77, 5-{[5-(3-Chlorophenyl)-6-methoxypyridin-3-yl]methyl}-N-(propan-2-yl)pyrimidin-2-amine]
1000 to 10000 nM | COc1ncc(Cc2cnc(NCCN(C)C)nc2)cc1-c1cccc(Cl)c1 [Example 3, {2-[(5-{[5-(3-Chlorophenyl)-6-methoxypyridin-3-yl]methyl}pyrimidin-2-yl)amino]ethyl}dimethylamine]
100 to 1000 nM | COc1ncc(C(F)c2ccc(F)cc2)cc1-c1cccc(Cl)c1 (stereo not shown) [Example 20, 3-(3-Chlorophenyl)-5-[fluoro(4-fluorophenyl)methyl]-2-methoxypyridine]
1000 to 10000 nM | COCc1ncnn1Cc1cnc(OC(F)F)c(-c2cccc(Cl)c2)c1 [Example 158, 3-(3-Chlorophenyl)-2-(difluoromethoxy)-5-{[5-(methoxymethyl)-1H-1,2,4-triazol-1-yl]methyl}pyridine]
< 100 nM | CCOc1ncc(Cc2cnc(N)nc2)cc1-c1cccc(Cl)c1 [Example 40, 5-{[5-(3-Chlorophenyl)-6-ethoxypyridin-3-yl]methyl}pyrimidin-2-amine]
1000 to 10000 nM | COc1ncc(C(O)c2ccc(F)cn2)cc1-c1cccc(Cl)c1 (stereo not shown) [Example 16, [5-(3-Chlorophenyl)-6-methoxypyridin-3-yl](5-fluoropyridin-2-yl)methanol]
< 100 nM | CCOc1ncc(Cn2cc(CO)cn2)cc1-c1cccc(Cl)c1 [Example 276, (1-{[5-(3-Chlorophenyl)-6-ethoxypyridin-3-yl]methyl}-1H-pyrazol-4-yl)methanol]
1000 to 10000 nM | COc1ncc(Cn2cnc(N)n2)cc1-c1cncc(Cl)c1 [Example 228, 1-{[5-(5-Chloropyridin-3-yl)-6-methoxypyridin-3-yl]methyl}-1H-1,2,4-triazol-3-amine]
< 100 nM | COc1ncc(Cc2cnc(OC)c(-c3cccc(Cl)c3)c2)cn1 [Example 76, 5-{[5-(3-Chlorophenyl)-6-methoxypyridin-3-yl]methyl}-2-methoxypyrimidine]
< 100 nM | NC(=O)Cc1ccc(Cc2cnc(OC(F)F)c(-c3cccc(Cl)c3)c2)cc1 [Example 246, 2-(4-{[5-(3-Chlorophenyl)-6-(difluoromethoxy)pyridin-3-yl]methyl}phenyl)acetamide]
1000 to 10000 nM | CCOc1ncc(Cn2cnc(CF)n2)nc1-c1cccc(OC(F)F)c1 [Example 257, 3-[3-(Difluoromethoxy)phenyl]-2-ethoxy-5-{[3-(fluoromethyl)-1H-1,2,4-triazol-1-yl]methyl}pyrazine]
100 to 1000 nM | CCOc1ncn(Cc2cnc(OC(F)F)c(-c3cccc(Cl)c3)c2)n1 [Example 216, 3-(3-Chlorophenyl)-2-(difluoromethoxy)-5-[(3-ethoxy-1H-1,2,4-triazol-1-yl)methyl]pyridine]
100 to 1000 nM | Cc1cn(Cc2cnc(OC(F)F)c(-c3cccc(Cl)c3)c2)cn1 [Example 154, 3-(3-Chlorophenyl)-2-(difluoromethoxy)-5-[(4-methyl-1H-imidazol-1-yl)methyl]pyridine]
100 to 1000 nM | COc1ncc(Cc2ccccc2CO)cc1-c1cccc(Cl)c1 [Example 37, (2-{[5-(3-Chlorophenyl)-6-methoxypyridin-3-yl]methyl}phenyl)methanol]
< 100 nM | COc1ncc(Cc2cnc(N)nc2)nc1-c1cccc(OC(F)F)c1 [Example 106, 5-({6-[3-(Difluoromethoxy)phenyl]-5-methoxypyrazin-2-yl}methyl)pyrimidin-2-amine]
100 to 1000 nM | COC(=O)c1ncn(Cc2cnc(OC)c(-c3cccc(Cl)c3)c2)n1 [Example 141, Methyl 1-{[5-(3-chlorophenyl)-6-methoxypyridin-3-yl]methyl}-1H-1,2,4-triazole-3-carboxylate]
< 100 nM | COc1ncc(Cn2cnc(C(F)F)n2)cc1-c1ccnc(OC(F)F)c1 [Example 261, 3-[2-(Difluoromethoxy)pyridin-4-yl]-5-{[3-(difluoromethyl)-1H-1,2,4-triazol-1-yl]methyl}-2-methoxypyridine]
100 to 1000 nM | CCOc1ncc(Cn2cc(CO)nn2)nc1-c1cccc(OC(F)F)c1 [Example 265, [1-({6-[3-(Difluoromethoxy)phenyl]-5-ethoxypyrazin-2-yl}methyl)-1H-1,2,3-triazol-4-yl]methanol]
1000 to 10000 nM | CCOc1ncc(Cn2cnc([N+](=O)[O-])n2)nc1-c1cccc(OC(F)F)c1 [Example 193, 3-(3-(Difluoromethoxy)phenyl)-2-ethoxy-5-((3-nitro-1H-1,2,4-triazol-1-yl)methyl)pyrazine]
1000 to 10000 nM | COC(=O)c1ncnn1Cc1cnc(OC)c(-c2cccc(Cl)c2)n1 [Example 195, Methyl 1-{[6-(3-chlorophenyl)-5-methoxypyrazin-2-yl]methyl}-1H-1,2,4-triazole-5-carboxylate]
100 to 1000 nM | CCOc1ncc(Cn2cnc(CO)n2)nc1-c1cccc(Cl)c1 [Example 212, (1-{[6-(3-Chlorophenyl)-5-ethoxypyrazin-2-yl]methyl}-1H-1,2,4-triazol-3-yl)methanol]
